Key:
Class II (π) ADH = Class II (π) ADH (Homo sapiens, UniProt P08319); assay: Kinetics of enzymatic reduction of methoxynaphthaldehydes by Class II ADH; type: biochemical; conditions: for v/v (EtOH): rate relative to ethanol oxidation at pH 10.0
β1 γ1 ADH (Class I) = molecular target: T1, β1 γ1 ADH (Class I) (Homo sapiens, UniProt P00325+P00326); assay: Kinetics of enzymatic reduction of methoxynaphthaldehydes by β1γ1 ADH; type: biochemical; conditions: rate relative to ethanol oxidation at pH 10.0
T1 construct: beta1 (ADH1B*1) and gamma1 (ADH1C*1) alleles

γ1 γ1 ADH (Class I) = molecular target: T2, γ1 γ1 ADH (Class I) (Homo sapiens, UniProt P00326); assay: Kinetics of enzymatic reduction of methoxynaphthaldehydes by γ1γ1 ADH; type: biochemical; conditions: rate relative to ethanol oxidation at pH 10.0
T2 construct: gamma1 allele (ADH1C*1, Arg271 and Ile349 in mature count)

β1 β1 ADH (Class I) [1] = assay: Kinetics of enzymatic reduction of methoxynaphthaldehydes by β1β1 ADH; type: biochemical, human; conditions: pH 7.0, 50 μM NADH; spectrophotometric
β1 γ2 ADH (Class I) = molecular target: T3, β1 γ2 ADH (Class I) (Homo sapiens, UniProt P00325+P00326, I350V/R272Q); assay: Kinetics of enzymatic reduction of methoxynaphthaldehydes by β1γ2 ADH; type: biochemical; conditions: rate relative to ethanol oxidation at pH 10.0
T3 construct: beta1 (ADH1B*1) and gamma2 (ADH1C*2) alleles
Procedure: (§1) Standard assays for ethanol oxidation activity (Dalziel, 1957, Acta Chem Scand 11:1706-23) were carried out on a Cary 219 spectrophotometer interfaced with an Apple IIe microcomputer, using software provided by Varian Associates. The reaction mixture contained 2.5 mM NAD^+ in 0.1M glycine-NaOH buffer. pH 10.0, and 33 mM or 0.2M ethanol for Class I and Class II ADH, respectively.
Aldehyde reduction was monitored by following the decrease of absorption at 340 nm in 40 mM Mes buffer, pH 7.1. in the presence of saturating NADH, 50 μM for Class I and 100 μM for Class II. […] Initial reaction rates were measured and kinetic parameters determined by conventional procedures as described by Segel, 1975, Enzyme Kinetics, pp. 591-597, Wiley, N.Y. […]
(§2) The linear increase of fluorescence was then recorded for 1-10 minutes, until 0.03-1 μM of substrate was consumed. […] The added product fluorescence intensity was then measured Fluorescence measurements were optimized for samples with low activity (<1 nM/minute). […] Rates measured in the presence of the 0.2 mM ADH inhibitors. […]
Additionally the reaction rates for these isozymes were compared to those measured by the standard assay for ethanol oxidation (see part 7 above) at pH 10.0 the optimum for oxidation of ethanol by ADH. […]

β1 β1 ADH (Class I) [2] = assay: Kinetics of enzymatic reduction of methoxynaphthaldehydes by β1β1 ADH; type: biochemical, human; conditions: for Km / kcat: Table IV; for v/v (EtOH): rate relative to ethanol oxidation at pH 10.0
Procedure: as §1
(§3) Aldehyde reduction was monitored by following the decrease of absorption at 340 nm in 40 mM Mes buffer, pH 7.1. in the presence of saturating NADH, 50 μM for Class I and 100 μM for Class II. […] Initial reaction rates were measured and kinetic parameters determined by conventional procedures as described by Segel, 1975, Enzyme Kinetics, pp. 591-597, Wiley, N.Y.
(§4) All reaction mixtures (3 ml total volume) were prepared directly in 1 cm pathlength, 4 ml fluorometric cuvettes by adding 150 μl of the 300 μM substrate solution (e.g substrate IA or IIA) 100 μl of the 1 mM NADH solution (prepared as in part 5 above) and 2.69 ml of assay buffer (0.1M phosphate, pH 7.6). After thermal equilibration (25° C.) for 5 minutes, 60 μl of isozyme sample (either serum or purified ADH isozymes) was added to the cuvette.
The linear increase of fluorescence was then recorded for 1-10 minutes, until 0.03-1 μM of substrate was consumed. Larger substrate consumption was not found to be desirable (described in subpart (c) below). After this period the instrument sensitivity setting was reduced 10-30 fold, the signal compensated once again by zero suppression (see part 6 above), and 60 μl of 200-400 μM product (e.g., product IB or IIB) was added to provide an internal standard. The added product fluorescence intensity was then measured Fluorescence measurements were optimized for samples with low activity (<1 nM/minute). For samples with higher activity, repeat measurements were made with the serum volume reduced from 60 μl to 10 μl. Rates measured in the presence of the 0.2 mM ADH inhibitors. 4-MeP or 4-PeP, were made by adding 50 μl of 12 mM inhibitor to the cuvette prior to the assay buffer, and the reaction was carried out as above.
(§5) The rates of aldehyde reduction, determined as initial velocities (V) and expressed in units of nM/minute, were calculated according to: [formula] where the quantity in parentheses is the slope of the linear fluorescence increase calculated from the quantities Ft and FO, the fluorescence at time t and at the beginning of the reaction, respectively. Cst is the concentration of the product used as a standard added to the cuvette after the initial rate had been measured and Fst is the fluorescence intensity of the added product
Additionally the reaction rates for these isozymes were compared to those measured by the standard assay for ethanol oxidation (see part 7 above) at pH 10.0 the optimum for oxidation of ethanol by ADH. The rate of IA reduction for all Class I isozymes except the β1 β1 form is 1.5- to 4-fold faster than that of ethanol oxidation as measured by the conventional ethanol oxidation assay. […] Table III illustrates that IIA is an excellent substrate for Class II (.eta.) ADH, with a rate of IIA reduction at least 8-fold faster than that of ethanol oxidation.

[3] = Spectral parameters for absorption and fluorescence of ADH substrates and products; type: physicochemical; conditions: for total decrease of molar absorptivity (aldehyde/NADH system): 340 nm, 40 mM Mes buffer, pH 7.1, with NADH
Procedure: The spectral parameters for 4-methoxy-1-naphthaldehyde (IA), 6-methoxy-2-naphthaldehyde (IIA) and their reduction products (IB and IIB, respectively) are shown in Table I.
Ultraviolet absorption spectra were measured on a Cary 219 or Hewlett-Packard 8451 spectrophotometer. Fluorescence measurements were made in a Perkin Elmer MPF3 spectrofluorometer, equipped with an Osram XBO 150 Watt Xenon lamp, an R446 photomultiplier, and thermostatted cell holder through which water was passed from a Poly-Temp circulator with the following spectrometer settings: excitation wavelength 316 nm. bandwidth 8 nm for both substrate IA and IIA; emission wavelength. 370 nm for substrate IA and 360 nm for substrate IIA, emission bandwidth 24 nm. Changes in fluorescence as a result of oxidation or reduction of the substrate was then measured in the ratio mode. Generally, for fluorometric reactions (see part 8 below). a sensitivity setting of 3 was used with compensation of fluorescence background by the zero suppression control of the instrument.
as §3

human ADH isozymes = assay: Kinetics of enzymatic reduction of methoxynaphthaldehydes by ADH isozymes (general); type: biochemical
Procedure: as §3
as §4, with “After thermal equilibration (25° C.) for 5 minutes, 60 μl of isozyme sample (either serum or purified ADH isozymes) was added to the cuvette.” left out
as §2
as §5, with “Cst is the concentration of the product used as a standard added to the cuvette after the initial rate had been measured and Fst is the fluorescence intensity of the added product” left out

αγ1 ADH (Class I) = molecular target: T4, αγ1 ADH (Class I) (Homo sapiens, UniProt P00326+P07327); assay: Kinetics of enzymatic reduction of methoxynaphthaldehydes by αγ1 ADH; type: biochemical; conditions: rate relative to ethanol oxidation at pH 10.0
T4 construct: gamma1 allele (ADH1C*1, Arg271 and Ile349 in mature count)

[4] = pH 7.0, 50 μM NADH, spectrophotometric

Sequence of Class II (π) ADH (P08319 whole entry): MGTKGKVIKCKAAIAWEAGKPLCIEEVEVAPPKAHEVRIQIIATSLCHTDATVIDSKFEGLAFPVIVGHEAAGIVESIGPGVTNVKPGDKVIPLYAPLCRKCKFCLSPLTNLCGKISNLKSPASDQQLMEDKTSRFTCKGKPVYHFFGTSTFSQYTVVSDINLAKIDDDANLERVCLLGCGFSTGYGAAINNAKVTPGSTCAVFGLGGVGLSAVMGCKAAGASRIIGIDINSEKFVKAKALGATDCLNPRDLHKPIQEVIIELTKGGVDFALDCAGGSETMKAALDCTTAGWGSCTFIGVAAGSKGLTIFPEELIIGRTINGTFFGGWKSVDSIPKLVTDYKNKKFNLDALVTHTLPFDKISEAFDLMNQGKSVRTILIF
T1 sequence (P00325 whole entry): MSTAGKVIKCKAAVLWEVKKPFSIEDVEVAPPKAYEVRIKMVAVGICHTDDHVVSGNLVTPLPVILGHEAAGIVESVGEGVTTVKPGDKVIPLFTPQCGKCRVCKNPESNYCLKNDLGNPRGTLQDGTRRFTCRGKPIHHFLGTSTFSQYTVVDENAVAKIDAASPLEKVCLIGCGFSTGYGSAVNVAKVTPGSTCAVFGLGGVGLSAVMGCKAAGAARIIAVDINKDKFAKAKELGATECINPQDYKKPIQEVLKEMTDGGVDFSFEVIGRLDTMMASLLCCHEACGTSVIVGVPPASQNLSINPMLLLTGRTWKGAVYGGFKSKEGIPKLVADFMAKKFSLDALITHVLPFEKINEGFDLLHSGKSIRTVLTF
T1 sequence (P00326 whole entry): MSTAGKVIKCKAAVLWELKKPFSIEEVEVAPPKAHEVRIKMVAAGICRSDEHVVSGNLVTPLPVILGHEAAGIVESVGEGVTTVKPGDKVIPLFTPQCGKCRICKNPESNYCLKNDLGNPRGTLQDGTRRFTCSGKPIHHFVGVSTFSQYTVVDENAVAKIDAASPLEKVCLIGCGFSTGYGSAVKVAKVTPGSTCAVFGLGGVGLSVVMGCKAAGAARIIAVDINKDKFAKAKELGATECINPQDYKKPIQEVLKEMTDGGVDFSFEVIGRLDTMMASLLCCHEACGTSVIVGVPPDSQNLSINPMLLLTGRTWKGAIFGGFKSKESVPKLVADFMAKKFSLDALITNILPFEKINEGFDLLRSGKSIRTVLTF
T2 sequence (P00326 2-375): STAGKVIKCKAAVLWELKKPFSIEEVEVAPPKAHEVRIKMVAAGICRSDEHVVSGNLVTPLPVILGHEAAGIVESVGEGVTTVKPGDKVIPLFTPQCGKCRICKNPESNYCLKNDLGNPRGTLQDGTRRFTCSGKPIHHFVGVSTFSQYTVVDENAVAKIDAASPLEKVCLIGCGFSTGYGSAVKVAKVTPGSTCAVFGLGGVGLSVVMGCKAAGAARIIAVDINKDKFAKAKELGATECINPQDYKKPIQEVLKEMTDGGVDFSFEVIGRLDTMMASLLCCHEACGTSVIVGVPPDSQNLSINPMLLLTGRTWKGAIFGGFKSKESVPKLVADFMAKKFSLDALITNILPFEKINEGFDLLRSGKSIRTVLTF
T4 sequence (P07327 2-375): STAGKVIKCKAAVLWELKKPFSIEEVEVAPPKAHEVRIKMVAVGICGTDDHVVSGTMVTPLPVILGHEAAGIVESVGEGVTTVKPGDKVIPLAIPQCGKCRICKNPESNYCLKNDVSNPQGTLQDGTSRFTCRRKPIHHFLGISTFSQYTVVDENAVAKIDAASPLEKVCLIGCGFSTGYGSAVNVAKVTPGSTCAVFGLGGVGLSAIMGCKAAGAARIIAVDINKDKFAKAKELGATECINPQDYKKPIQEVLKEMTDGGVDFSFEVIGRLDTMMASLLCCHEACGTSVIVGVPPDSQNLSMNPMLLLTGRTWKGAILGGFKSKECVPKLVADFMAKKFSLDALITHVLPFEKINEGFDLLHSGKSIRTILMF
T4 sequence (P00326 2-375): as the sequence (P00326 2-375) above
T3 sequence (P00325 2-375, stated change not applied): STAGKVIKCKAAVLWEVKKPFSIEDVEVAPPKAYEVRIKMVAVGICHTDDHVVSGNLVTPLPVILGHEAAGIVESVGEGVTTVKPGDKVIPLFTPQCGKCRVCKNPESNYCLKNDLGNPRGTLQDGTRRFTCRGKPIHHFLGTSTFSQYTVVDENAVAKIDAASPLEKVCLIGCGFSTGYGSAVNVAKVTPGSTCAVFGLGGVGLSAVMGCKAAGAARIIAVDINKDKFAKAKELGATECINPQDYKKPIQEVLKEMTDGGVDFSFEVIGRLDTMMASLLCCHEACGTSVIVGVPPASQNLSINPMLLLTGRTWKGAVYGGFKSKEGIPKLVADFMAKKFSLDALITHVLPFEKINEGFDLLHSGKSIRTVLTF
T3 sequence (P00326 2-375 R272Q/I350V): as the sequence (P00326 2-375) above, with R271Q, I349V counted along it

For `COc1ccc(C=O)c2ccccc12` [IA, 4-methoxy-1-naphthaldehyde], the kcat (Class II (π) ADH; [4]) was 0.833 s⁻¹, the “v/v (EtOH)” value (Class II (π) ADH) was 0.20 and the “v/v (EtOH)” value (β1 γ1 ADH (Class I)) was 0.93. The “v/v (EtOH)” value (γ1 γ1 ADH (Class I)) was 1.54, the Km (β1 β1 ADH (Class I) [1]) was 4 µM and the kcat (β1 β1 ADH (Class I) [1]) was 0.033 s⁻¹. The “v/v (EtOH)” value (β1 γ2 ADH (Class I)) was 3.4, the Km (β1 β1 ADH (Class I) [2]) was 4 µM and the kcat (β1 β1 ADH (Class I) [2]) was 0.033 s⁻¹. The “v/v (EtOH)” value (β1 β1 ADH (Class I) [2]) was 0.08, the “rate of reduction of IA versus IIA by Class I ββ isozymes” value (β1 β1 ADH (Class I) [2]; words) was “much faster” and the “total decrease of molar absorptivity (aldehyde/NADH system)” value [3] was 18000 M⁻¹ cm⁻¹. The “Absorption εmax” value ([3]; Mes buffer (45 mM), pH 7.0) was 13,100 M^-1 cm^-1, the “Absorption λmax” value ([3]; Mes buffer (45 mM), pH 7.0) was 332 nm and the “Fluorescence .phi. (quantum yield)” value ([3]; Mes buffer (45 mM), pH 7.0) was 0.003. For the same compound, the “Fluorescence λmax” value ([3]; Mes buffer (45 mM), pH 7.0) was 420 nm, the “Km of most, in particular γ-containing Class I isozymes” value (human ADH isozymes) was “close to or below 1” and the “v/v (EtOH)” value (αγ1 ADH (Class I)) was 2.71.
In the case of `COc1ccc2cc(C=O)ccc2c1` [IIA, 6-methoxy-2-naphthaldehyde], the “kcat for Class II relative to Class I isozymes” value (Class II (π) ADH) is reported as 10 fold, the kcat (Class II (π) ADH; Class II) is reported as 25 s⁻¹ and the “rate of reduction relative to ethanol oxidation” value (Class II (π) ADH; Class II ADH) is reported as “at least 8 fold”. The kcat (Class II (π) ADH; [4]) was 25 s⁻¹, the “v/v (EtOH)” value (Class II (π) ADH) was 8.0 and the “v/v (EtOH)” value (β1 γ1 ADH (Class I)) was 0.53. The “v/v (EtOH)” value (γ1 γ1 ADH (Class I)) was 0.45, the Km (β1 β1 ADH (Class I) [1]) was 5.4 µM and the kcat (β1 β1 ADH (Class I) [1]) was 1.28 s⁻¹. For the same compound, the “v/v (EtOH)” value (β1 γ2 ADH (Class I)) was 1.6, the Km (β1 β1 ADH (Class I) [2]) was 5.4 µM and the kcat (β1 β1 ADH (Class I) [2]) was 1.28 s⁻¹. The “v/v (EtOH)” value (β1 β1 ADH (Class I) [2]) was 4.85, the “total decrease of molar absorptivity (aldehyde/NADH system)” value [3] was 12700 M⁻¹ cm⁻¹ and the “Absorption εmax” value ([3]; Mes buffer (45 mM), pH 7.0) was 14,400 M^-1 cm^-1. For the same compound, the “Absorption λmax” value ([3]; Mes buffer (45 mM), pH 7.0) was 315 nm, the “Fluorescence .phi. (quantum yield)” value ([3]; Mes buffer (45 mM), pH 7.0) was 0.22 and the “Fluorescence λmax” value ([3]; Mes buffer (45 mM), pH 7.0) was 450 nm. The “Fluorescence .phi. (quantum yield)” value ([3]; in methanol) was 0.03, the “Fluorescence λmax” value ([3]; in methanol) was 435 nm and the “Km of most, in particular γ-containing Class I isozymes” value (human ADH isozymes) was “close to or below 1”. The “v/v (EtOH)” value (αγ1 ADH (Class I)) was 1.06.

Reference: patent US5162203A, “Methods of measuring isozymes and isozyme classes of alcohol dehydrogenase” (President and Fellows of Harvard College, priority 1989, dated 1992)
